For experiment [1], the target named is T1, human TNFR1 extracellular domain (ECD) protein (Homo sapiens, UniProt P19438).
T1 construct: HRV 3C protease cleavage site (C); 6His (C, cleaved yes); made in house; host or cells: Sf21 insect cells (baculovirus), secreted
T1 sequence (P19438 30-211): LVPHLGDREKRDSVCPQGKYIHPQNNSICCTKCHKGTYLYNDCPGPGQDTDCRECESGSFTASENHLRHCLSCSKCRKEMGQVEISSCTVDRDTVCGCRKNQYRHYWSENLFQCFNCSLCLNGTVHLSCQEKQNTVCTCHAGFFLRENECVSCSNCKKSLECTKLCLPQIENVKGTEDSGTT
Description: SPR binding affinity to captured human TNFR1 ECD. An outline of the steps: (§1)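 Peptides are tested against captured biotin-tagged human TNFR1 ECD, with parallel TNFR2 ECD binding to check selectivity. Buffer: 10 mM HEPES pH 7.4, 150 mM NaCl, 3 mM EDTA, 0.05% P20, 2% DMSO.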
In general terms: Surface plasmon resonance follows binding to a sensor surface in real time, without labels.

For another experiment, the target named is T2, human TNFR2 ECD protein (Homo sapiens, UniProt P20333).
T2 construct: HRV 3C protease cleavage site (C); 6His (C, cleaved yes); made in house; host or cells: Sf21 insect cells (baculovirus), secreted
T2 sequence (P20333 23-257): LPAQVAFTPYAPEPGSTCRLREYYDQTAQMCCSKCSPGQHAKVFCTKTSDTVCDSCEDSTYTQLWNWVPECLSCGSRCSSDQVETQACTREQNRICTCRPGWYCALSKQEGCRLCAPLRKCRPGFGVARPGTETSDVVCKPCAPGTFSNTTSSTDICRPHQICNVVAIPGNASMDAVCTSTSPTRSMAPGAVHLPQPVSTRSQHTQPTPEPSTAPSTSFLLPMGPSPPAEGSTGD
Description: SPR off-target binding (selectivity) to human TNFR2 ECD. In short, it runs like this: as §1

Experiment [2] has as its target T3, human soluble TNFR1 (sTNFR1) (Homo sapiens, UniProt P19438).
T3 construct: made in house; host or cells: Sf21 (baculovirus)
T3 sequence (P19438 with tags, fused parts or gaps): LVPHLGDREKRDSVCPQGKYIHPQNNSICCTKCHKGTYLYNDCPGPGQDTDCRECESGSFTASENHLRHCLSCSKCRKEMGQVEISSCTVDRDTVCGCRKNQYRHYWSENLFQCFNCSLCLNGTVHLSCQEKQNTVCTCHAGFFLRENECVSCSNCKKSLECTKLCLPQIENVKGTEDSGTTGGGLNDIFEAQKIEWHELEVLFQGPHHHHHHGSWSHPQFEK
Description: Human sTNFR1-peptide displacement assay (LanthaScreen Eu TR-FRET binding assay). An outline of the steps:
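Readout is the 665/615 nm TR-FRET ratio (Eu anti-His donor, streptavidin-Alexa647 acceptor), normalized to DMSO and saturating displacer, fit by Morrison-based five-parameter logistic for Kd^app. His-tagged sTNFR1 (1-211) prebound to 100 nM biotinylated peptide SEQ ID NO.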
(In general: In TR-FRET formats the signal depends on donor and acceptor labels being close together.)

Numbered stars: 1 amine (or outer) side, 2 acyl side, 3 side chain; on linkers, the order of the positions; unused ones are H or OH. Square brackets hold non-standard residues; d marks the D form. Peptide text beside a SMILES is read from it. Trp(βS-Me,7-OMe) = COc1cccc2c([C@H](C)[C@H](N)C(=O)O)c[nH]c12; X21 = COc1cccc2c([C@H](C)[C@H](N[*:1])C(=O)[*:2])c(C)[nH]c12; Trp(7-Br) = N[C@@H](Cc1c[nH]c2c(Br)cccc12)C(=O)O; Trp(7-CN) = N#Cc1cccc2c(C[C@H](N)C(=O)O)c[nH]c12; Trp(7-Cl) = N[C@@H](Cc1c[nH]c2c(Cl)cccc12)C(=O)O; Phe(3-CONH2) = NC(=O)c1cccc(C[C@H](N)C(=O)O)c1; Phe(4-CONH2) = NC(=O)c1ccc(C[C@H](N)C(=O)O)cc1; Phe(4-COOH) = N[C@@H](Cc1ccc(C(=O)O)cc1)C(=O)O; dPro(trans-4-F) = O=C(O)[C@H]1C[C@H](F)CN1; Pip(5R-OH) = O=C(O)[C@@H]1CC[C@@H](O)CN1; X1 = O=C([C@@H]1CC[C@H](N[*:1])C1)[*:2]; Pip(4-aza) = O=C(O)[C@@H]1CNCCN1; 4Pal = N[C@@H](Cc1ccncc1)C(=O)O; NMeE = CN[C@@H](CCC(=O)O)C(=O)O; dHyp = O=C(O)[C@H]1C[C@H](O)CN1; Ahp(2) = CCCCC[C@H](N)C(=O)O; αMeS = C[C@](N)(CO)C(=O)O; Nle = CCCC[C@H](N)C(=O)O; Sar = CNCC(=O)O

One may read the Kd as the free concentration of one partner at which half of the binding sites on the other are occupied at equilibrium, for simple one-to-one binding. Consider `CCCC[C@@H]1NC(=O)[C@@H]2CC[C@@H](C2)NC(=O)[C@H]([C@@H](C)c2c[nH]c3c(OC)cccc23)NC(=O)CN(C)C(=O)[C@H](Cc2ccc(C(N)=O)cc2)NC(=O)[C@H](Cc2ccc(C(N)=O)cc2)NC(=O)[C@](C)(CO)NC(=O)[C@H](Cc2c[nH]c3c(C#N)cccc23)NC(=O)[C@H](Cc2ccc(C(=O)O)cc2)NC(=O)[C@H](CC(N)=O)NC(=O)[C@H](CCC(=O)O)N(C)C(=O)[C@H](Cc2c[nH]c3ccccc23)NC(=O)[C@@H]2CC[C@@H](O)CN2C(=O)[C@H](Cc2ccncc2)NC1=O` [SEQ ID NO. 19] (cyclo([4Pal][Pip(5R-OH)]W[NMeE]N[Phe(4-COOH)][Trp(7-CN)][αMeS][Phe(4-CONH2)][Phe(4-CONH2)][Sar][Trp(βS-Me,7-OMe)][X1][Nle])), for which the Kd in experiment [1] was 0.07 nM; on human TNFR2 ECD protein it was greater than 1000 nM; in experiment [2], 0.08 nM.
Taken in the same sequence, the figures for `CCCC[C@@H]1NC(=O)[C@@H]2CC[C@@H](C2)NC(=O)[C@H]([C@@H](C)c2c[nH]c3c(OC)cccc23)NC(=O)CN(C)C(=O)[C@H](Cc2ccc(C(=O)O)cc2)NC(=O)[C@H](Cc2ccc(C(N)=O)cc2)NC(=O)[C@](C)(CO)NC(=O)[C@H](Cc2c[nH]c3c(Cl)cccc23)NC(=O)[C@H](Cc2ccncc2)NC(=O)[C@H](CC(N)=O)NC(=O)[C@H]2C[C@H](F)CN2C(=O)[C@H](Cc2c[nH]c3ccccc23)NC(=O)[C@@H]2CC[C@@H](O)CN2C(=O)[C@H](Cc2ccncc2)NC1=O` [SEQ ID NO. 101] (cyclo([4Pal][Trp(7-Cl)][αMeS][Phe(4-CONH2)][Phe(4-COOH)][Sar][Trp(βS-Me,7-OMe)][X1][Nle][4Pal][Pip(5R-OH)]W[dPro(trans-4-F)]N)) were 0.05 nM, greater than 1000 nM and 0.05 nM.
Taken in the same sequence, the figures for `CCCC[C@@H]1NC(=O)[C@@H]2CC[C@@H](C2)NC(=O)[C@H]([C@@H](C)c2c(C)[nH]c3c(OC)cccc23)NC(=O)CN(C)C(=O)[C@H](Cc2ccc(C(=O)O)cc2)NC(=O)[C@H](Cc2ccc(C(N)=O)cc2)NC(=O)[C@](C)(CO)NC(=O)[C@H](Cc2c[nH]c3c(Cl)cccc23)NC(=O)[C@H](Cc2ccc(C(=O)O)cc2)NC(=O)[C@H](CC(N)=O)NC(=O)[C@H]2C[C@H](O)CN2C(=O)[C@H](Cc2c[nH]c3ccccc23)NC(=O)[C@@H]2CC[C@@H](O)CN2C(=O)[C@H](Cc2ccncc2)NC1=O` [SEQ ID NO. 106] (cyclo([4Pal][Pip(5R-OH)]W[dHyp]N[Phe(4-COOH)][Trp(7-Cl)][αMeS][Phe(4-CONH2)][Phe(4-COOH)][Sar][X21][X1][Nle])) were 0.04 nM, greater than 1000 nM and 0.05 nM.
As for `CCCCC[C@@H]1NC(=O)[C@@H]2CC[C@@H](C2)NC(=O)[C@H]([C@@H](C)c2c[nH]c3c(OC)cccc23)NC(=O)CN(C)C(=O)[C@H](Cc2cccc(C(N)=O)c2)NC(=O)[C@H](Cc2ccc(C(N)=O)cc2)NC(=O)[C@](C)(CO)NC(=O)[C@H](Cc2c[nH]c3c(Br)cccc23)NC(=O)[C@H](Cc2ccc(C(=O)O)cc2)NC(=O)[C@H](CC(N)=O)NC(=O)[C@H]2C[C@H](O)CN2C(=O)[C@H](Cc2c[nH]c3ccccc23)NC(=O)[C@@H]2CNCCN2C(=O)[C@H](Cc2ccncc2)NC1=O` [SEQ ID NO. 109] (cyclo([4Pal][Pip(4-aza)]W[dHyp]N[Phe(4-COOH)][Trp(7-Br)][αMeS][Phe(4-CONH2)][Phe(3-CONH2)][Sar][Trp(βS-Me,7-OMe)][X1][Ahp(2)])), the Kd was 0.05 nM in experiment [1], greater than 1000 nM on human TNFR2 ECD protein and 0.11 nM in experiment [2].

The values above are taken from patent US20240287138A1, “CYCLIC PEPTIDES FOR INHIBITING TNF RECEPTOR 1 ACTIVITY” (Merck Sharp & Dohme LLC, priority 2023, published 2024).
